The results in this text go back to paper PMC3278406 (PLoS ONE, 2012).

“Also recorded” adds a separate entry of the source.

The assay deals with Stx2 toxoid (Escherichia phage 933W, UniProt P09386). It counts as binding, Escherichia coli O157:H7.
Stx2 toxoid, sequence (P09386 whole entry, looked up): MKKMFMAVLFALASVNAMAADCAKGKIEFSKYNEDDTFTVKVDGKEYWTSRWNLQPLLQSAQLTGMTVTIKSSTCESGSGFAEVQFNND

Regarding `CC(C)CCC[C@@H](C)[C@H]1CC[C@H]2[C@@H]3CC[C@H]4CCCC[C@]4(C)[C@H]3CC[C@]12C` [5αCh, 5-α-Cholestane], the “Stx2 binding to Gb3 in the presence of sterol and PC” value was “failed to support binding”.

With `CCCCCCCCCCCCC/C=C/[C@@H](O)[C@@H](N)CO[C@@H]1O[C@H](CO)[C@@H](O[C@@H]2O[C@H](CO)[C@H](O[C@H]3O[C@H](CO)[C@H](O)[C@H](O)[C@H]3O)[C@H](O)[C@H]2O)[C@H](O)[C@H]1O` [Lyso-Gb3, Lyso-globotriaosylsphingosine], the Stx2 binding result was “did not bind”.

`CC(C)CCC[C@@H](C)[C@H]1CC[C@H]2[C@@H]3CC=C4C[C@@H](O)CC[C@]4(C)[C@H]3CC[C@]12C` [cholesterol]: the “change of Stx2 binding to Gb3 in the absence of cholesterol” value is “statistically significant decrease” and the “change of Stx2 binding to Gb3 in the presence of cholesterol alone” value is “statistically significant increase”. On to Asialo GM1 gangliosides [aGM1], for which the Stx2 binding entry is recorded as “failed to support binding”. Still for that read-out and setting: the result for Asialo GM2 gangliosides [aGM2] reads “failed to support binding”; that for Galactosyl ceramide [Gal-Cer], “failed to support binding”. In the case of Globotetraosyl ceramide [Gb4], the Stx2 binding result is “increased binding”. Further, the Kd (read-out: apparent Kd of Stx2) was 14 nM. “Globotriaosyl ceramide, Ceramide trihexoside [Gb3]”: the Stx2 binding result was “poor binding; also recorded: increased binding” and the “concentration of Stx2 needed to reach saturated binding” value is given as “above 1 µM”. For Glucosyl ceramide [Glc-Cer], the Stx2 binding result is “failed to support binding”.

Lactosyl ceramide [Lac-Cer]: the Stx2 binding entry was “failed to support binding”.
